Test results taken from ChEMBL document CHEMBL1201862, “PubChem BioAssay data set” (2004).
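Where inhibition never reached the appropriate level, the endpoint shown equals the highest concentration tested. Otherwise, values were interpolated linearly from a five-concentration, 48-hour dose response in 96-well plates. Here, GI50 denotes the concentration required for 50% inhibition of growth.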 Activity calls are given as the source filed them. Cut-off read from the data, not from the text of the source: active = GI50 up to about 1.1 µM and inactive = higher.

Assays:
Assay in all cases: inhibition of tumour cell growth, NCI panel, 48 h
[1] = system: OVCAR-5
[2] = system: HL-60
[3] = system: NCI-H460
[4] = system: LOX IMVI
[5] = system: CCRF-CEM
[6] = system: OVCAR-8
[7] = system: KM12
[8] = system: SF-295
[9] = system: SF-539
[10] = system: SK-MEL-5
[11] = system: ACHN
[12] = system: HCC 2998
[13] = system: NCI-H23
[14] = system: U-251
[15] = system: DU-145
[16] = system: 786-0
[17] = system: SK-MEL-2
[18] = system: HCT-15
[19] = system: CAKI-1
[20] = system: NCI-H522

Row | SMILES | GI50 [1] | GI50 [2] | GI50 [3] | GI50 [4] | GI50 [5] | GI50 [6] | GI50 [7] | GI50 [8] | GI50 [9] | GI50 [10] | GI50 [11] | GI50 [12] | GI50 [13] | GI50 [14] | GI50 [15] | GI50 [16] | GI50 [17] | GI50 [18] | GI50 [19] | GI50 [20]
1 | O=C(c1ccccc1)c1ccc2nc3n(c2c1)C(c1c(F)cccc1F)SC3 (stereo not given) | 5.74 µM (inactive) | 2.03 µM (inactive) | 3.98 µM (inactive) | 6.11 µM (inactive) | 4.76 µM (inactive) | 9.33 µM (inactive) | 2.82 µM (inactive) | 3.2 µM (inactive) | 10.3 µM (inactive) | 4.08 µM (inactive) | 3.85 µM (inactive) | 5.25 µM (inactive) | 9.4 µM (inactive) | 6.67 µM (inactive) | 11.3 µM (inactive) | 4.2 µM (inactive) | 8.3 µM (inactive) | 3.16 µM | 5.13 µM (inactive) | 2.01 µM (inactive)
2 | COc1cccc(/C=N/NC(=O)CSCC(=O)N/N=C/c2cccc(OC)c2OC)c1OC | > 100 µM (inactive) | > 100 µM (inactive) | > 100 µM (inactive) | – | – | > 100 µM (inactive) | > 100 µM (inactive) | > 100 µM (inactive) | > 100 µM (inactive) | 58.3 µM (inactive) | > 100 µM (inactive) | > 100 µM (inactive) | > 100 µM (inactive) | > 100 µM (inactive) | > 100 µM (inactive) | > 100 µM (inactive) | > 100 µM (inactive) | > 100 µM | > 100 µM (inactive) | > 100 µM (inactive)
3 | CC(=O)/N=C1/N(/C=C2\C(=O)Oc3ccccc3C2=O)C(=O)/C(=C/c2ccc(Cl)cc2Cl)N1C | > 100 µM (inactive) | 36.6 µM (inactive) | > 10 µM (inactive) | 62.2 µM (inactive) | 66.8 µM (inactive) | > 100 µM (inactive) | 66.8 µM (inactive) | > 100 µM (inactive) | 25.6 µM (inactive) | 10.9 µM (inactive) | > 100 µM (inactive) | > 100 µM (inactive) | > 100 µM (inactive) | 52.6 µM (inactive) | > 100 µM (inactive) | > 100 µM (inactive) | 71.4 µM (inactive) | > 100 µM | > 100 µM (inactive) | 94 µM (inactive)
4 | CCCCCC/C=C\CCCCCCCCC(=O)c1cccc(OC)c1OC | > 100 µM (inactive) | 14.8 µM (inactive) | – | 16.8 µM (inactive) | 35.6 µM (inactive) | > 100 µM (inactive) | 84.7 µM (inactive) | 45.7 µM (inactive) | > 100 µM (inactive) | 15.2 µM (inactive) | > 100 µM (inactive) | > 100 µM (inactive) | 40.2 µM (inactive) | > 100 µM (inactive) | > 100 µM (inactive) | > 100 µM (inactive) | > 100 µM (inactive) | > 100 µM | > 100 µM (inactive) | 44.6 µM (inactive)
5 | O=C1c2ccc3c4ccc5c6c(ccc(c7ccc(c2c37)C(=O)N1CCN1CCCCC1)c64)C(=O)N(CCN1CCCCC1)C5=O | > 100 µM (inactive) | > 100 µM (inactive) | > 100 µM (inactive) | > 100 µM (inactive) | > 100 µM (inactive) | > 100 µM (inactive) | > 100 µM (inactive) | > 100 µM (inactive) | > 100 µM (inactive) | > 100 µM (inactive) | > 100 µM (inactive) | > 100 µM (inactive) | > 100 µM (inactive) | > 100 µM (inactive) | > 100 µM (inactive) | > 100 µM (inactive) | > 100 µM (inactive) | > 100 µM | > 100 µM (inactive) | –
6 | N=C(N)NCCCC(NC(=O)OCCCCn1ccc(N)nc1=O)C(=O)O (stereo not given) | > 100 µM (inactive) | > 100 µM (inactive) | > 100 µM (inactive) | > 100 µM (inactive) | > 100 µM (inactive) | – | > 100 µM (inactive) | > 100 µM (inactive) | > 100 µM (inactive) | – | > 100 µM (inactive) | > 100 µM (inactive) | > 100 µM (inactive) | > 100 µM (inactive) | > 100 µM (inactive) | > 100 µM (inactive) | > 100 µM (inactive) | > 100 µM | > 100 µM (inactive) | –
7 | Oc1cc(Br)cc2cc(Br)cnc12 | – | 0.22 µM (active) | 1.3 µM (inactive) | 0.661 µM (active) | 1.83 µM (inactive) | 2.96 µM (inactive) | 5.38 µM (inactive) | 2.64 µM (inactive) | 3.78 µM (inactive) | 2.48 µM (inactive) | 1.48 µM (inactive) | 17.1 µM (inactive) | 4.95 µM (inactive) | – | 3.68 µM (inactive) | 13.8 µM (inactive) | – | 1.13 µM | 8.55 µM (inactive) | 2.3 µM (inactive)
8 | Cc1ccc(O)c(C(c2cc(C)ccc2O)c2cc([N+](=O)[O-])ccc2O)c1 | 14.3 µM (inactive) | 3.42 µM (inactive) | – | 31.7 µM (inactive) | 13.6 µM (inactive) | 3.66 µM (inactive) | 7.74 µM (inactive) | 16.7 µM (inactive) | 15.7 µM (inactive) | 38.6 µM (inactive) | 13.2 µM (inactive) | 12.4 µM (inactive) | 12.4 µM (inactive) | 15.7 µM (inactive) | 17.3 µM (inactive) | 16.1 µM (inactive) | 13.7 µM (inactive) | 16.3 µM | 12.2 µM (inactive) | 13.2 µM (inactive)
9 | O=C(c1ccccc1)N1CCC(Nc2nccs2)O1 (stereo not given) | > 10 µM (inactive) | > 10 µM (inactive) | > 10 µM (inactive) | > 10 µM (inactive) | > 10 µM (inactive) | > 10 µM (inactive) | – | > 10 µM (inactive) | > 10 µM (inactive) | > 10 µM (inactive) | > 10 µM (inactive) | > 10 µM (inactive) | > 10 µM (inactive) | – | > 10 µM (inactive) | > 10 µM (inactive) | > 10 µM (inactive) | > 10 µM | > 10 µM (inactive) | > 10 µM (inactive)
10 | COc1ccccc1NC(=O)O/N=C(/Cl)C(C)C | 16.3 µM (inactive) | 1.64 µM (inactive) | 19.3 µM (inactive) | 2.28 µM (inactive) | 0.977 µM (active) | 15 µM (inactive) | 20.2 µM (inactive) | 15.2 µM (inactive) | 19.5 µM (inactive) | 11.8 µM (inactive) | 5.92 µM (inactive) | 15.6 µM (inactive) | 14 µM (inactive) | 16.7 µM (inactive) | 18.8 µM (inactive) | 11.9 µM (inactive) | 16.4 µM (inactive) | 13.2 µM | – | 1.81 µM (inactive)
11 | Cc1ccc(O)c(Cc2nc3ccccc3nc2-c2cccc(Cl)c2)c1 | > 100 µM (inactive) | 42 µM (inactive) | 54.3 µM (inactive) | 36.8 µM (inactive) | – | > 100 µM (inactive) | 59.6 µM (inactive) | > 100 µM (inactive) | 87.1 µM (inactive) | 40.2 µM (inactive) | 49 µM (inactive) | 36.1 µM (inactive) | 69.3 µM (inactive) | 35.4 µM (inactive) | > 100 µM (inactive) | > 100 µM (inactive) | 46.3 µM (inactive) | 15.4 µM | 52.7 µM (inactive) | 20.3 µM (inactive)
